Assay results published in US8629102B2, “3-hydroxyisothiazole 1-oxide derivatives” (Mochida Pharmaceutical Co., Ltd., priority 2011, dated 2014).
pEC50: −log10 of the molar value.

Molecular target: T1, GPR40 of human origin (Homo sapiens, UniProt O14842)
T1 construct: expressed in transfected cells
Assay: Agonist action on GPR40 of human origin (intracellular Ca2+ change)
Type: cell-based
Details: CHO cell strain stably expressing GPR40 of human origin; change in Ca2+ concentration, fluorescent calcium indicator
Outline: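 CHO cells stably expressing human GPR40, cultured overnight, then loaded 1 h with Calcium 4 dye plus probenecid in HEPES-buffered HBSS. Compound added in 20 mM HEPES-HBSS; intracellular Ca2+ change read by fluorescence, EC50 from dose-response of fluorescence change.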

T1 sequence (O14842 whole entry): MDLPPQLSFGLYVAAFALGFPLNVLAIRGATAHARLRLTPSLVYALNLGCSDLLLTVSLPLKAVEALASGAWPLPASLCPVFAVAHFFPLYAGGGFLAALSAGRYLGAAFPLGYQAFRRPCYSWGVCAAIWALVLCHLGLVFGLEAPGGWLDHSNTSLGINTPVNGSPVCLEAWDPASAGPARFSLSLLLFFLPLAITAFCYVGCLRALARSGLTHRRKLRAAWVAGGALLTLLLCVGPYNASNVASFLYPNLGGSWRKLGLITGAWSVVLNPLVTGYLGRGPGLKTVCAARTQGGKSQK

Compound | pEC50
[O-][s+]1nc(O)cc1-c1ccc(O[C@@H]2CCc3c(-c4cc(C(F)(F)F)ccc4F)cccc32)cc1 (stereo partly drawn) [Example 67, 5-(4-(((R)-4-(2-fluoro-5-trifluoromethylphenyl)-2,3-dihydro-1H-inden-1-yl)oxy)phenyl)-3-hydroxyisothiazole 1-oxide] | > 6.52
COc1ccc(-c2cccc3c2CC[C@H]3Oc2ccc(-c3cc(O)n[s+]3[O-])cc2)cc1 (stereo partly drawn) [Example 23, 5-(4-(((R)-4-(4-methoxyphenyl)-2,3-dihydro-1H-inden-1-yl)oxy)phenyl)-3-hydroxyisothiazole 1-oxide] | > 6.52
COc1ccc(OC)c(-c2cccc3c2CC[C@H]3Oc2ccc(-c3cc(O)n[s+]3[O-])cc2)c1 (stereo partly drawn) [Example 54, 5-(4-(((R)-4-(2,5-dimethoxyphenyl)-2,3-dihydro-1H-inden-1-yl)oxy)phenyl)-3-hydroxyisothiazole 1-oxide] | > 6.52
N#Cc1ccc(Oc2cccc3c2CC[C@H]3Oc2ccc(-c3cc(O)n[s+]3[O-])cc2)cc1 (single isomer, unassigned) [Example 83] | > 6.52
COc1ccc(C)cc1-c1cccc2c1CC[C@H]2Oc1ccc(-c2cc(O)n[s+]2[O-])cc1 (stereo partly drawn) [Example 45, 5-(4-(((R)-4-(2-methoxy-5-methylphenyl)-2,3-dihydro-1H-inden-1-yl)oxy)phenyl)-3-hydroxyisothiazole 1-oxide] | > 6.52
[O-][s+]1nc(O)cc1-c1ccc(O[C@@H]2CCc3c(-c4ccc(F)cc4OCc4ccccc4)cccc32)cc1 (stereo partly drawn) [Example 61, 5-(4-(((R)-4-(2-benzyloxy-4-fluorophenyl)-2,3-dihydro-1H-inden-1-yl)oxy)phenyl)-3-hydroxyisothiazole 1-oxide] | 5.52 to 6.52
CC(C)Cc1ccc(-c2cccc3c2CC[C@H]3Oc2ccc(-c3cc(O)n[s+]3[O-])cc2)cc1 (stereo partly drawn) [Example 28, 5-(4-(((R)-4-(4-isobutylphenyl)-2,3-dihydro-1H-inden-1-yl)oxy)phenyl)-3-hydroxyisothiazole 1-oxide] | > 6.52
[O-][s+]1nc(O)cc1-c1ccc(O[C@@H]2CCc3c2cccc3N2CCCc3ccccc32)cc1 (stereo partly drawn) [Example 158, 5-(4-(((R)-4-(3,4-dihydroquinoline-1(2H)-yl)-2,3-dihydro-1H-inden-1-yl)oxy)phenyl)-3-hydroxyisothiazole 1-oxide] | > 6.52
[O-][s+]1nc(O)cc1-c1ccc(O[C@@H]2CCc3c(Oc4cccc(CCO)c4)cccc32)cc1 (stereo partly drawn) [Example 89, 3-hydroxy-5-(4-(((R)-4-(3-(2-hydroxyethyl)phenoxy)-2,3-dihydro-1H-inden-1-yl)oxy)phenyl)isothiazole 1-oxide] | > 6.52
[O-][s+]1nc(O)cc1-c1ccc(O[C@@H]2CCc3c(-c4ccc(Cl)nc4)cccc32)cc1 (stereo partly drawn) [Example 74, 5-(4-(((R)-4-(6-chloropyridin-3-yl)-2,3-dihydro-1H-inden-1-yl)oxy)phenyl)-3-hydroxyisothiazole 1-oxide] | > 6.52
Cc1ccnc(Oc2cccc3c2CC[C@H]3Oc2ccc(-c3cc(O)n[s+]3[O-])cc2)c1 (stereo partly drawn) [Example 133, 3-hydroxy-5-(4-(((R)-4-((4-methylpyridin-2-yl)oxy)-2,3-dihydro-1H-inden-1-yl)oxy)phenyl)isothiazole 1-oxide] | > 6.52
COc1cccc(Oc2cccc3c2CC[C@H]3Oc2ccc(-c3cc(O)n[s+]3[O-])cc2)n1 (stereo partly drawn) [Example 149, 3-hydroxy-5-(4-(((R)-4-((6-methoxypyridin-2-yl)oxy)-2,3-dihydro-1H-inden-1-yl)oxy)phenyl)isothiazole 1-oxide] | > 6.52
Cc1ccc(Cl)c(-c2cccc3c2CC[C@H]3Oc2ccc(-c3cc(O)n[s+]3[O-])cc2)c1 (single isomer, unassigned) [Example 15] | > 6.52
N#Cc1ccc(Oc2cccc3c2CC[C@H]3Oc2ccc(-c3cc(O)n[s+]3[O-])cc2)nc1 (stereo partly drawn) [Example 118, 6-(((1R)-1-(4-(3-hydroxy-1-oxidoisothiazol-5-yl)phenoxy)-2,3-dihydro-1H-inden-4-yl)oxy)nicotinonitrile] | > 6.52
[O-][s+]1nc(O)cc1-c1ccc(O[C@@H]2CCc3c(-c4ccccc4C(F)(F)F)cccc32)cc1 (stereo partly drawn) [Example 64, 5-(4-(((R)-4-(2-trifluoromethylphenyl)-2,3-dihydro-1H-inden-1-yl)oxy)phenyl)-3-hydroxyisothiazole 1-oxide] | > 6.52
N#Cc1ccc(Oc2cccc3c2OCC3Oc2ccc(-c3cc(O)n[s+]3[O-])cc2)cc1 (single isomer, unassigned) [Example 144-a, 4-((3-(4-(3-hydroxy-1-oxidoisothiazol-5-yl)phenoxy)-2,3-dihydrobenzofuran-7-yl)oxy)benzonitrile] | > 6.52
[O-][s+]1nc(O)cc1-c1ccc(OCCc2ccccc2Oc2ccccc2)cc1 (stereo not drawn) [Example 161, 3-hydroxy-5-(4-(2-phenoxyphenethoxy)phenyl)isothiazole 1-oxide] | > 6.52
[O-][s+]1nc(O)cc1-c1ccc(O[C@@H]2CCc3c(-c4ccc(F)cc4)cccc32)cc1 (stereo partly drawn) [Example 21, 5-(4-(((R)-4-(4-fluorophenyl)-2,3-dihydro-1H-inden-1-yl)oxy)phenyl)-3-hydroxyisothiazole 1-oxide] | > 6.52
CC(C)Oc1ccc(-c2cccc3c2CC[C@H]3Oc2ccc(-c3cc(O)n[s+]3[O-])cc2)cc1 (stereo partly drawn) [Example 31, 5-(4-(((R)-4-(4-isopropoxyphenyl)-2,3-dihydro-1H-inden-1-yl)oxy)phenyl)-3-hydroxyisothiazole 1-oxide] | 5.52 to 6.52
Cc1nc(OCCC(C)(C)O)ccc1Oc1cccc2c1CC[C@H]2Oc1ccc(-c2cc(O)n[s+]2[O-])cc1 (stereo partly drawn) [Example 101, 3-hydroxy-5-(4-(((R)-4-((6-(3-hydroxy-3-methylbutoxy)-2-methylpyridin-3-yl)oxy)-2,3-dihydro-1H-inden-1-yl)oxy)phenyl)isothiazole 1-oxide] | > 6.52
Cc1ccc(-c2cccc3c2CC[C@H]3Oc2ccc(-c3cc(O)n[s+]3[O-])cc2)cc1F (stereo partly drawn) [Example 13, 5-(4-(((R)-4-(3-fluoro-4-methylphenyl)-2,3-dihydro-1H-inden-1-yl)oxy)phenyl)-3-hydroxyisothiazole 1-oxide] | > 6.52
COc1ccc(Oc2cccc3c2CC[C@H]3Oc2ccc(-c3cc(O)n[s+]3[O-])cc2)c(C)n1 (stereo partly drawn) [Example 106, 3-hydroxy-5-(4-(((R)-4-((6-methoxy-2-methylpyridin-3-yl)oxy)-2,3-dihydro-1H-inden-1-yl)oxy)phenyl)isothiazole 1-oxide] | > 6.52
[O-][s+]1nc(O)cc1-c1ccc(OCc2ccc(CN3CCC4(C=Cc5ccccc54)CC3)cc2)cc1 (stereo not drawn) [Example 123, 3-hydroxy-5-(4-((4-(spiro[inden-1,4′-piperidin]-1′-ylmethyl)benzyl)oxy)phenyl)isothiazole 1-oxide] | 5.52 to 6.52
[O-][s+]1nc(O)cc1-c1ccc(O[C@@H]2CCc3c(-c4cc(F)ccc4C(F)(F)F)cccc32)cc1 (stereo partly drawn) [Example 66, 5-(4-(((R)-4-(5-fluoro-2-trifluoromethylphenyl)-2,3-dihydro-1H-inden-1-yl)oxy)phenyl)-3-hydroxyisothiazole 1-oxide] | > 6.52
CCOc1ncccc1-c1cccc2c1CC[C@H]2Oc1ccc(-c2cc(O)n[s+]2[O-])cc1 (stereo partly drawn) [Example 19, 5-(4-(((R)-4-(2-ethoxypyridin-3-yl)-2,3-dihydro-1H-inden-1-yl)oxy)phenyl)-3-hydroxyisothiazole 1-oxide] | > 6.52
Cc1ccc(-c2cccc3c2CC[C@H]3Oc2ccc(-c3cc(O)n[s+]3[O-])cc2)c(Cl)c1 (stereo partly drawn) [Example 43, 5-(4-(((R)-4-(2-chloro-4-methylphenyl)-2,3-dihydro-1H-inden-1-yl)oxy)phenyl)-3-hydroxyisothiazole 1-oxide] | > 6.52
N#Cc1ccc(-c2cccc3c2CC[C@H]3Oc2ccc(-c3cc(O)n[s+]3[O-])cc2)cc1 (stereo partly drawn) [Example 156, 4-((1R)-1-(4-(3-hydroxy-1-oxidoisothiazol-5-yl)phenoxy)-2,3-dihydro-1H-inden-4-yl)benzonitrile] | > 6.52
[O-][s+]1nc(O)cc1-c1ccc(O[C@@H]2CCc3c(-c4cc(F)cc(F)c4)cccc32)cc1 (stereo partly drawn) [Example 12, 5-(4-(((R)-4-(3,5-difluorophenyl)-2,3-dihydro-1H-inden-1-yl)oxy)phenyl)-3-hydroxyisothiazole 1-oxide] | > 6.52
[O-][s+]1nc(O)cc1-c1ccc(O[C@@H]2CCc3c(Oc4cnc5ccccc5c4)cccc32)cc1 (stereo partly drawn) [Example 104, 3-hydroxy-5-(4-(((R)-4-(quinolin-3-yloxy)-2,3-dihydro-1H-inden-1-yl)oxy)phenyl)isothiazole 1-oxide] | > 6.52
COc1cc(C)c(Oc2cccc3c2CC[C@H]3Oc2ccc(-c3cc(O)n[s+]3[O-])cc2)cn1 (stereo partly drawn) [Example 105, 3-hydroxy-5-(4-(((R)-4-((6-methoxy-4-methylpyridin-3-yl)oxy)-2,3-dihydro-1H-inden-1-yl)oxy)phenyl)isothiazole 1-oxide] | > 6.52
